Legend:
[1] = tested on: cotton aphid (Aphis gossypii); assay: Insecticidal test for cotton aphid in foliar spray assay; assay type: in vivo; design: key to CA 50: % control at 50 ppm against cotton aphid in foliar spray tests: A: 90-100; B: 80-89; C: 70-79; D: 60-69; E: 50-59; F: Less than 50; G: Inactive; H: Not tested; details: foliar spray on squash cotyledons, 3 days, Corrected % Control (Abbott); for pest or weed control at 50 ppm / pest or weed control at 200 ppm: Aphis gossypii, 72 h; for pest or weed control at 50 ppm: read-out: CA 50: % control at 50 ppm against cotton aphid in foliar spray tests; for pest or weed control at 200 ppm: read-out: CA 200: % control at 200 ppm against cotton aphid in foliar spray tests
Protocol: (§1) The compounds identified in the foregoing examples were tested against cotton aphid and green peach aphid using procedures described hereinafter. Insecticidal Test for Cotton Aphid (Aphis Gossypii) in Foliar Spray Assay Squash with fully expanded cotyledon leaves were trimmed to one cotyledon per plant and infested with cotton aphid (wingless adult and nymph) 1 day prior to chemical application. Each plant was examined before chemical application to ensure proper infestation (ca. 30-70 aphids per plant). Compounds (2 mg) were dissolved in 2 ml of acetone:methanol (1:1) solvent, forming stock solutions of 1000 ppm. The stock solutions were diluted 5× with 0.025% Tween 20 in H2O to obtain a solution at 200 ppm. Lower concentrations (50, 12.5 and 3.13 ppm) were prepared by making sequential 4× dilutions from the 200 ppm solution with a diluent consisting 80 parts of 0.025% Tween 20 in H2O and 20 parts of acetone:methanol (1:1). A hand-held Devilbiss sprayer was used to apply the spray solutions until runoff to both sides of the squash cotyledon leaves. Four plants (4 replications) were used for each concentration of each compound. Reference plants (solvent check) were sprayed with the diluent only. Treated plants were held in a holding room for 3 days at approximately 23° C. and 40% RH before the number of live aphids on each plant was recorded. Insecticidal activity was measured by Corrected % Control using Abbott's correction formula and presented in Table 1: Corrected % Control=100*(X−Y)/X • where X=No. of live aphids on solvent check plants • Y=No. of live aphids on treated plants Insecticidal Test for Green Peach Aphid (Myzus Persicae) in Foliar Spray Assay

[2] = tested on: green peach aphid (Myzus persicae); assay: Insecticidal test for green peach aphid in foliar spray assay; assay type: in vivo; design: key to GPA 50: % control at 50 ppm against green peach aphid in foliar spray tests / GPA 200: % control at 200 ppm against green peach aphid in foliar spray tests: A: 90-100; B: 80-89; C: 70-79; D: 60-69; E: 50-59; F: Less than 50; G: Inactive; H: Not tested; details: foliar spray on cabbage seedlings, 3 days, Corrected % Control (Abbott); for pest or weed control at 50 ppm / pest or weed control at 200 ppm: Myzus persicae, 72 h; for pest or weed control at 50 ppm: read-out: GPA 50: % control at 50 ppm against green peach aphid in foliar spray tests; for pest or weed control at 200 ppm: read-out: GPA 200: % control at 200 ppm against green peach aphid in foliar spray tests
Protocol: as §1, with “hereinafter.” for “hereinafter. Insecticidal Test for Cotton Aphid (Aphis Gossypii) in Foliar Spray Assay”, “Assay Cabbage seedlings grown in 3-inch pots, with 2-3 small (3-5 cm) true leaves, were used as test substrate. The seedlings were infested with 20-50 green peach aphids (wingless adult and nymph) 2-3 days prior to chemical application. Four seedlings were used for each treatment. Compounds (2 mg) were dissolved in 2 ml of acetone:methanol (1:1) solvent, forming stock solutions of 1000 ppm. The stock solutions were diluted 5× with 0.025% Tween 20 in H2O to obtain a solution at 200 ppm. Lower concentrations (50, 12.5 and 3.13 ppm) were prepared by making sequential 4× dilutions from the 200 ppm solution with a diluent consisting 80 parts of 0.025% Tween 20 in H2O and 20 parts of acetone: methanol (1:1). A hand-held Devilbiss sprayer was used for spraying a solution to both sides of cabbage leaves until runoff. Reference plants (solvent check) were sprayed with the diluent only. Treated plants were held in a holding room for three days at approximately 23° C. and 40% RH prior to grading. Evaluation was conducted by counting the number of live aphids per plant under a microscope. Insecticidal activity was measured by using Abbott's correction formula: Corrected % Control=100*(X−Y)/X • where X=No. of live aphids on solvent check plants • Y=No. of live aphids on treated plants The Corrected % Control values from assays are given in Table 1.” for “Assay”

SMILES | pest or weed control at 50 ppm ([1]; 50 ppm) | pest or weed control at 200 ppm [1] | pest or weed control at 50 ppm [2] | pest or weed control at 200 ppm [2] | CA 50: % control at 50 ppm against cotton aphid in foliar spray tests ([1]; 50 ppm) | GPA 50: % control at 50 ppm against green peach aphid in foliar spray tests [2] | GPA 200: % control at 200 ppm against green peach aphid in foliar spray tests [2]
C/S(Cc1cnc(Cl)c(F)c1)=N\C#N (stereo not drawn) [Compound 7, [(5-fluoro-6-chloropyridin-3-yl)methyl](methyl)-λ^4-sulfanylidenecyanamide] | 90 to 100% | 90 to 100% | 60 to 69% | 70 to 79% |  |  | 
C/S(Cc1ccc(C(C)(F)F)nc1)=N\C#N (stereo not drawn) [Compound 8] | 90 to 100% | 90 to 100% | 60 to 69% | 90 to 100% |  |  | 
CS(=NC#N)[C@@H]1CCC[C@@H]1c1ccc(Cl)nc1 (relative stereo) [Compound 9, cis-[2-(6-chloropyridin-3-yl)cyclopentyl](methyl)-λ^4-sulfanylidenecyanamide] |  | 60 to 69% |  | 60 to 69% | G | G | 
C/S(Cc1cnc(C(F)(F)F)s1)=N\C#N (stereo not drawn) [Compound 5, (1E)-methyl {[2-(trifluoromethyl)-1,3-thiazol-5-yl]methyl}-λ^4-sulfanylidenecyanamide] | 50 to 59% | 90 to 100% |  |  |  | G | G
CC(c1ccc(C(Cl)(Cl)Cl)nc1)/S(C)=N/C#N (stereo not drawn) [Compound 3, {1-[6-(trichloromethyl)pyridin-3-yl]ethyl}(methyl)-λ^4-sulfanylidenecyanamide] | 90 to 100% | 90 to 100% | 90 to 100% | 90 to 100% |  |  | 
N#C/N=S1/CCC(c2ccc(C(F)(F)F)nc2)C1 (stereo not drawn) [Compound 6, 3-[6-(trifluoromethyl)pyridin-3-yl]tetrahydro-1H-1λ^4-thien-1-ylidenecyanamide] | 90 to 100% | 90 to 100% | 50 to 59% | 70 to 79% |  |  | 
CC(c1ccc(C(F)(F)Cl)nc1)/S(C)=N/C#N (stereo not drawn) [Compound 2, (1-{6-[chloro(difluoro)methyl]pyridin-3-yl}ethyl)(methyl)-λ^4-sulfanylidenecyanamide] | 90 to 100% | 90 to 100% | 90 to 100% | 90 to 100% |  |  | 
C/S(Cc1ccc(C(F)(F)F)nc1)=N\C#N (stereo not drawn) [Compound 1] | 60 to 69% | 90 to 100% |  |  |  | G | G
CC(c1cnc(Cl)nc1)/S(C)=N/C#N (stereo not drawn) [Compound 4, (1E)-[1-(2-chloropyrimidin-5-yl)ethyl](methyl)-λ^4-sulfanylidenecyanamide] | 70 to 79% | 90 to 100% |  | < 50% |  | G | 
